ChEMBL document CHEMBL4118246, “Discovery and evaluation of 3,5-disubstituted indole derivatives as Pim kinase inhibitors” (Bioorg Med Chem Lett, 2018)

Columns and labels:
[1] = target: Serine/threonine-protein kinase pim-1 (Homo sapiens, UniProt P11309)
Description: Inhibition of PIM1 (unknown origin)

[2] = target: Serine/threonine-protein kinase pim-3 (Homo sapiens, UniProt Q86V86); assay: Inhibition of PIM3 (unknown origin)
[3] = target: Serine/threonine-protein kinase pim-2 (Homo sapiens, UniProt Q9P1W9); assay: Inhibition of PIM2 (unknown origin)
[4] = system: MV4-11; assay: Growth inhibition of human MV4-11 cells; type: functional, cell-based
[5] = system: HepG2; assay: Cell cycle arrest in human HepG2 cells assessed as accumulation at S phase at 1 uM by FACS analysis relative to control; type: functional
[6] = system: HepG2; assay: Cell cycle arrest in human HepG2 cells assessed as accumulation at G0/G1 phase at 1 uM by FACS analysis relative to control; type: functional
[7] = system: HepG2; assay: Cell cycle arrest in human HepG2 cells assessed as accumulation at G2/M phase at 1 uM by FACS analysis relative to control; type: functional
[8] = system: HepG2; assay: Cell cycle arrest in human HepG2 cells assessed as accumulation at sub-G1 phase at 1 uM by FACS analysis relative to control; type: functional
[9] = system: HepG2; assay: Cell cycle arrest in human HepG2 cells assessed as accumulation at G2/M phase at 10 uM by FACS analysis relative to control; type: functional
[10] = system: HepG2; assay: Cell cycle arrest in human HepG2 cells assessed as accumulation at G0/G1 phase at 10 uM by FACS analysis relative to control; type: functional
[11] = system: HepG2; assay: Cell cycle arrest in human HepG2 cells assessed as accumulation at S phase at 10 uM by FACS analysis relative to control; type: functional
[12] = system: HepG2; assay: Cell cycle arrest in human HepG2 cells assessed as accumulation at sub-G1 phase at 10 uM by FACS analysis relative to control; type: functional

Chain of Serine/threonine-protein kinase pim-1 (P11309 whole entry): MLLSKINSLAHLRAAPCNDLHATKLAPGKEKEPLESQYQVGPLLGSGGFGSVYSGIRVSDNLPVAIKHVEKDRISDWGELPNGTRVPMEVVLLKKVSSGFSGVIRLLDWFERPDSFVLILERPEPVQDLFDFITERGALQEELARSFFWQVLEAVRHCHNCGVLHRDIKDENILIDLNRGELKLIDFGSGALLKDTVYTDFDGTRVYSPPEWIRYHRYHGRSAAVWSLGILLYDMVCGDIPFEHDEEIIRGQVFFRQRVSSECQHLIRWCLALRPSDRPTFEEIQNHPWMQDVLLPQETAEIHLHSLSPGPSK
Chain of Serine/threonine-protein kinase pim-2 (Q9P1W9 whole entry): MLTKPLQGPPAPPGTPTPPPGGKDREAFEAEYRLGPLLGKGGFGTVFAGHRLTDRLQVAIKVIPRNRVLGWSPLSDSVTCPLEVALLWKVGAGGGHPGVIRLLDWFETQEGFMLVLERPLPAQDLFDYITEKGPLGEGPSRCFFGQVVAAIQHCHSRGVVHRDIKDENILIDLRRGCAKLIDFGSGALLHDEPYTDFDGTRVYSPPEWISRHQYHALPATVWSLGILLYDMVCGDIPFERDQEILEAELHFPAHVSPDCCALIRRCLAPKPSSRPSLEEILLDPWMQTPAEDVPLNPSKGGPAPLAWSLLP

## CN(C)CCNc1cncc(-c2ccc3[nH]cc(-c4ccnc(N)n4)c3c2)n1
[1]
  IC50: 3 nM
[2]
  IC50: 7 nM

## NCCNc1cncc(-c2ccc3[nH]cc(-c4ccccc4F)c3c2)n1
[1]
  IC50: 5 nM
[3]
  IC50: 230 nM
[2]
  IC50: 7 nM

## CC(=O)c1ccc(F)c(-c2c[nH]c3ccc(-c4cncc(NCCN(C)C)n4)cc23)c1
[1]
  IC50: 3 nM
[3]
  IC50: 220 nM
[2]
  IC50: 7 nM
[4]
  IC50: 6300 nM

## CN(C)CCNc1cncc(-c2ccc3[nH]cc(-c4cccc(N)c4)c3c2)n1
[1]
  IC50: 19 nM
[3]
  IC50: 820 nM
[2]
  IC50: 40 nM

## CN(C)CCNc1cncc(-c2ccc3[nH]cc(-c4ccc(C(F)(F)F)cc4)c3c2)n1
[1]
  IC50: 67 nM
[3]
  IC50: 5800 nM
[2]
  IC50: 247 nM

## CN(C)CCNc1cncc(-c2ccc3[nH]cc(-c4ccc(C(F)(F)F)c(F)c4)c3c2)n1
[1]
  IC50: 256 nM
[3]
  IC50: 7950 nM
[2]
  IC50: 589 nM

## OCCc1cncc(-c2ccc3[nH]cc(-c4ccccc4F)c3c2)n1
[1]
  IC50: 885 nM
[3]
  IC50: > 10000 nM
[2]
  IC50: 3050 nM

## Fc1ccccc1-c1c[nH]c2ccc(-c3cncc(N4CCCNCC4)n3)cc12
[1]
  IC50: 12 nM
[3]
  IC50: 537 nM
[2]
  IC50: 16 nM

## CN(C)CCNc1cncc(-c2ccc3[nH]cc(-c4ccc(C#N)cc4)c3c2)n1
[1]
  IC50: 33 nM
[3]
  IC50: 2540 nM
[2]
  IC50: 155 nM

## CN(C)CCNc1cncc(-c2ccc3[nH]cc(-c4ccc(N)c(C#N)c4)c3c2)n1
[5]
  Activity: 21.7%
[1]
  IC50: 5 nM
[6]
  Activity: 52.3%
[7]
  Activity: 16.5%
[8]
  Activity: 3.4%
[3]
  IC50: 259 nM
[9]
  Activity: 15.8%
[10]
  Activity: 53%
[2]
  IC50: 10 nM
[11]
  Activity: 23.1%
[12]
  Activity: 2.6%
[4]
  IC50: 800 nM

## CN(C)CCNc1cncc(-c2ccc3[nH]cc(-c4ccc(F)c(C(F)(F)F)c4)c3c2)n1
[1]
  IC50: 144 nM
[3]
  IC50: 4320 nM
[2]
  IC50: 183 nM

## CN(C)CCCOc1cncc(-c2ccc3[nH]cc(-c4ccc(C(F)(F)F)cc4)c3c2)n1
[1]
  IC50: 307 nM
[3]
  IC50: > 10000 nM
[2]
  IC50: 905 nM

## CN(C)CCNc1cncc(-c2ccc3[nH]cc(-c4cccc(C(F)(F)F)c4)c3c2)n1
[1]
  IC50: 35 nM
[3]
  IC50: 2260 nM
[2]
  IC50: 69 nM

## CN(C)CCNc1cncc(-c2ccc3[nH]cc(-c4ccccc4F)c3c2)n1
[1]
  IC50: 7 nM
[3]
  IC50: 370 nM
[2]
  IC50: 10 nM

## Brc1ccc2[nH]cc(-c3ccccc3)c2c1
[1]
  IC50: > 10000 nM

## CN(C)CCN(C)c1cncc(-c2ccc3[nH]cc(-c4ccc(C(F)(F)F)cc4)c3c2)n1
[1]
  IC50: 313 nM
[3]
  IC50: > 10000 nM
[2]
  IC50: 401 nM

## CN(C)CCNc1cncc(-c2ccc3[nH]cc(-c4ccc(S(N)(=O)=O)cc4)c3c2)n1
[5]
  Activity: 21.3%
[1]
  IC50: 9 nM
[6]
  Activity: 55.5%
[7]
  Activity: 15.3%
[8]
  Activity: 2.4%
[3]
  IC50: 700 nM
[9]
  Activity: 14.6%
[10]
  Activity: 58%
[2]
  IC50: 26 nM
[11]
  Activity: 19.8%
[12]
  Activity: 2.4%
[4]
  IC50: 6800 nM

## O=C1NCCN1c1cncc(-c2ccc3[nH]cc(-c4ccccc4F)c3c2)n1
[1]
  IC50: 257 nM
[3]
  IC50: > 10000 nM
[2]
  IC50: 273 nM

## CN(C)CCNc1cncc(-c2ccc3[nH]cc(-c4cccc(F)c4F)c3c2)n1
[5]
  Activity: 19.2%
[1]
  IC50: 9 nM
[6]
  Activity: 56%
[7]
  Activity: 16.2%
[8]
  Activity: 2.8%
[3]
  IC50: 645 nM
[9]
  Activity: 0%
[10]
  Activity: 22.6%
[2]
  IC50: 22 nM
[11]
  Activity: 3.2%
[12]
  Activity: 74.2%
[4]
  IC50: 2600 nM

## CN(C)CCNc1cncc(-c2ccc3[nH]cc(-c4cc(C#N)ccc4F)c3c2)n1
[5]
  Activity: 20.6%
[1]
  IC50: 9 nM
[6]
  Activity: 53.5%
[7]
  Activity: 17%
[8]
  Activity: 2.4%
[3]
  IC50: 841 nM
[9]
  Activity: 19%
[10]
  Activity: 37.6%
[2]
  IC50: 18 nM
[11]
  Activity: 28.3%
[12]
  Activity: 5.7%
[4]
  IC50: 2900 nM

## COc1cccc(-c2c[nH]c3ccc(-c4cncc(NCCN(C)C)n4)cc23)c1
[1]
  IC50: 7 nM
[3]
  IC50: 560 nM
[2]
  IC50: 19 nM

## CN(C)CCCNc1cncc(-c2ccc3[nH]cc(-c4ccc(C(F)(F)F)cc4)c3c2)n1
[1]
  IC50: 195 nM
[3]
  IC50: > 10000 nM
[2]
  IC50: 368 nM

## CN(C)CCNc1cncc(-c2ccc3[nH]cc(-c4cccc(C#N)c4)c3c2)n1
[1]
  IC50: 21 nM
[3]
  IC50: 770 nM
[2]
  IC50: 60 nM

## CCOc1cncc(-c2ccc3[nH]cc(-c4ccccc4)c3c2)n1
[1]
  IC50: > 10000 nM
[3]
  IC50: > 10000 nM
[2]
  IC50: > 10000 nM

## CN(C)CCNc1cncc(-c2ccc3[nH]cc(-c4cccc(OC(F)(F)F)c4)c3c2)n1
[1]
  IC50: 134 nM
[3]
  IC50: 2780 nM
[2]
  IC50: 128 nM

## CN(C)CCNc1cncc(-c2ccc3[nH]cc(-c4cccc(F)c4)c3c2)n1
[1]
  IC50: 30 nM
[3]
  IC50: 650 nM
[2]
  IC50: 35 nM

## FC(F)(F)c1ccc(-c2c[nH]c3ccc(-c4cncc(N5CCNCC5)n4)cc23)cc1
[1]
  IC50: 260 nM
[3]
  IC50: 2120 nM
[2]
  IC50: 241 nM

## CN(C)CCNc1cncc(-c2ccc3[nH]cc(-c4ccc(N)cc4F)c3c2)n1
[1]
  IC50: 3 nM
[3]
  IC50: 267 nM
[2]
  IC50: 9 nM
[4]
  IC50: 1700 nM

## CN(C)CCNc1cncc(-c2ccc3[nH]cc(-c4ccc(S(C)(=O)=O)cc4)c3c2)n1
[5]
  Activity: 20.7%
[1]
  IC50: 21 nM
[6]
  Activity: 51.7%
[7]
  Activity: 19.3%
[8]
  Activity: 1.6%
[3]
  IC50: 2160 nM
[9]
  Activity: 17.9%
[10]
  Activity: 52.5%
[2]
  IC50: 50 nM
[11]
  Activity: 20.9%
[12]
  Activity: 2.7%
[4]
  IC50: 7300 nM

## CN(C)CCOc1cncc(-c2ccc3[nH]cc(-c4ccc(C(F)(F)F)cc4)c3c2)n1
[1]
  IC50: 443 nM
[3]
  IC50: > 10000 nM
[2]
  IC50: 877 nM

## CN(C)CCNc1cncc(-c2ccc3[nH]cc(-c4ccc(OC(F)(F)F)cc4)c3c2)n1
[1]
  IC50: 96 nM
[3]
  IC50: 4440 nM
[2]
  IC50: 236 nM

## COc1ccc(-c2c[nH]c3ccc(-c4cncc(NCCN(C)C)n4)cc23)cc1
[1]
  IC50: 9 nM
[3]
  IC50: 870 nM
[2]
  IC50: 30 nM

## CN(C)CCNc1cncc(-c2ccc3[nH]cc(-c4ccc(F)cc4)c3c2)n1
[1]
  IC50: 22 nM
[3]
  IC50: 1620 nM
[2]
  IC50: 82 nM

## NC1CCCN(c2cncc(-c3ccc4[nH]cc(-c5ccccc5F)c4c3)n2)C1 (stereo unspecified)
[1]
  IC50: 7 nM
[3]
  IC50: 1380 nM
[2]
  IC50: 11 nM

## FC(F)(F)c1ccc(-c2c[nH]c3ccc(-c4cncc(OC5CCNCC5)n4)cc23)cc1
[1]
  IC50: 187 nM
[3]
  IC50: 4350 nM
[2]
  IC50: 204 nM

## CN(C)CCNc1cncc(-c2ccc3[nH]cc(-c4ccc(N)cc4)c3c2)n1
[1]
  IC50: 8 nM
[3]
  IC50: 460 nM
[2]
  IC50: 29 nM

## CN(C)CCNc1cncc(-c2ccc3[nH]cc(-c4cc(C(=O)O)ccc4F)c3c2)n1
[1]
  IC50: 23 nM
[3]
  IC50: 1430 nM
[2]
  IC50: 137 nM

## CN(C)CCCN(C)c1cncc(-c2ccc3[nH]cc(-c4ccc(C(F)(F)F)cc4)c3c2)n1
[1]
  IC50: 209 nM
[3]
  IC50: > 10000 nM
[2]
  IC50: 475 nM

## Cc1ccc(-c2c[nH]c3ccc(-c4cncc(NCCN(C)C)n4)cc23)cc1
[1]
  IC50: 19 nM
[3]
  IC50: 1800 nM
[2]
  IC50: 33 nM

## Cc1cccc(-c2c[nH]c3ccc(-c4cncc(NCCN(C)C)n4)cc23)c1
[1]
  IC50: 21 nM
[3]
  IC50: 830 nM
[2]
  IC50: 29 nM

## CN(C)CCNc1cncc(-c2ccc3[nH]cc(-c4ccc(-c5ccccc5)cc4)c3c2)n1
[1]
  IC50: 160 nM
[3]
  IC50: 5330 nM
[2]
  IC50: 417 nM

## CN1CCC(CNc2ccc3ncc(-c4cccc(OC(F)(F)F)c4)n3n2)CC1 [SGI-1776]
[5]
  Activity: 19.8%
[6]
  Activity: 44.2%
[7]
  Activity: 13.3%
[8]
  Activity: 16%
[9]
  Activity: 1.9%
[10]
  Activity: 36.9%
[11]
  Activity: 8.3%
[12]
  Activity: 52.3%
[4]
  IC50: 30 nM
